The target in assay [1] is T1, hM5 (human Muscarinic receptor subtype 5) (Homo sapiens, UniProt P08912).
T1 construct: expressed in transfected cells; host or cells: CHO cells (Chinese hamster ovary cells, ATCC)
T1 sequence (P08912 1-532): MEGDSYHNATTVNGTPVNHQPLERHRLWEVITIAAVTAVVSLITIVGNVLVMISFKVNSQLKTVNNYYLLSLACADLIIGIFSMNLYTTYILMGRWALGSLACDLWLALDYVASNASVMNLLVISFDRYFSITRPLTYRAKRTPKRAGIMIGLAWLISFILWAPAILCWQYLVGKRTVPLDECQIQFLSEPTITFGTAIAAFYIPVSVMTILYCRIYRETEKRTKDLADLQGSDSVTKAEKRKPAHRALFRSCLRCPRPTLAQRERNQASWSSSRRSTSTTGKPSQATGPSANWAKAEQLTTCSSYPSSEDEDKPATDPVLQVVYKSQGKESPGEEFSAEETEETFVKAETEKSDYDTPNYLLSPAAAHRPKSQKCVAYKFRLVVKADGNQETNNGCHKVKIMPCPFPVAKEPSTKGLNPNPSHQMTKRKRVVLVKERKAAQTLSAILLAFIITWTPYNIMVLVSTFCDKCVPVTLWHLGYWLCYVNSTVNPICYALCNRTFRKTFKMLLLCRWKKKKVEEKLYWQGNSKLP
Briefly: Human M5 calcium mobilization FLIPR assay. The format is cell-based. As to conditions: receptor expressed in CHO cells, intracellular Ca2+ release. The procedure:
(§1) The compound activity in the present invention (EC50 or IC50) is measured using a 384 plate-based imaging assay that monitors drug induced intracellular Ca^2+ release in whole cells. Activation of hM1 (human Muscarinic receptor subtype 1, gene bank access NM_000738), rM1 (rat Muscarinic receptor subtype 1, gene bank access NM_080773), hM3 (human Muscarinic receptor subtype 3, gene bank access NM_000740NM_000740) and hM5 (human Muscarinic receptor subtype 5, gene bank access NM_0121258), receptors expressed in CHO cells (Chinese hamster ovary cells, ATCC) is quantified in a Molecular Devices FLIPR IITM instrument as an increase in fluorescent signal. Inhibition of hM3 and hM5 by compounds is determined by the decrease in fluorescent signal in response to 2 nM acetylcholine activation.
(§2) Prior to experiment, the cell culture medium is removed from the plates by inversion. […] Plates are incubated at 37° C. for 60 minutes prior to start the experiment. The incubation is terminated by washing the cells four times in assay buffer, leaving a residual 25 μl buffer per well. Cell plates are then transferred to the FLIPR, ready for compound additions.
(§3) The day of experiment, acetylcholine and compounds are diluted in assay buffer in three-fold concentration range (10 points serial dilution) for addition by FLIPR instrument. For all calcium assays, a baseline reading is taken for 10 seconds followed by the addition of 12.5 μl of compounds, resulting in a total well volume of 37.5 μl. Data is collected every second for 60 pictures and then every 6 seconds for 20 pictures prior to the addition of agonist. For hM3 and hM5, before agonist addition, a second baseline reading is taken for 10 seconds followed by the addition of 12.5 μl of agonist or buffer, producing a final volume of 50 μl. After agonist stimulation, the FLIPR continues to collect data every second for 60 pictures and then every 6 seconds for 20 pictures. The fluorescence emission is read using filter 1 (emission 510-570 nm) by the FLIPR on board CCD camera.
(§4) Calcium mobilization output data are calculated as the maximal relative fluorescence unit (RFU) minus the minimal value for both compound and agonist reading frame (except for hM1 and rM1 using only the maximal RFU). Data are analyzed using sigmoidal fits of a non-linear curve-fitting program (XLfit version 4.2.2 Excel add-in version 4.2.2 build 18 math 1Q version 2.1.2 build 18). All pEC50 and pIC50 values are reported as arithmetic means±standard error of mean of ‘n’ independent experiments.
(In general: Calcium flux is commonly read through the fluorescence of an indicator in the cells.)

For assay [2], the target named is T2, hM1 (human Muscarinic receptor subtype 1) (Homo sapiens, UniProt P11229).
T2 construct: expressed in transfected cells; host or cells: CHO cells (Chinese hamster ovary cells, ATCC)
T2 sequence (P11229 1-460): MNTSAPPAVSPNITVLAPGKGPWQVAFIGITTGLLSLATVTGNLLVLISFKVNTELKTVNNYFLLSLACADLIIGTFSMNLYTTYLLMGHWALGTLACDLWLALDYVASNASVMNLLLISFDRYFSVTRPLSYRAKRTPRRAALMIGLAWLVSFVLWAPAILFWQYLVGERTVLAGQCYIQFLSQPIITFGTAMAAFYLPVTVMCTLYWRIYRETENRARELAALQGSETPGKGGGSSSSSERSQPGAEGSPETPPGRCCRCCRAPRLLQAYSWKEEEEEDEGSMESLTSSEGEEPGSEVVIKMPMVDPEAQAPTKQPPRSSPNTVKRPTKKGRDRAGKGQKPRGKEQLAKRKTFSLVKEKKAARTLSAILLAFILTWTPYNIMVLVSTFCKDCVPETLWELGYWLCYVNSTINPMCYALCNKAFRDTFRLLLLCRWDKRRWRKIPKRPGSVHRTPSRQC
Briefly: Human M1 calcium mobilization FLIPR assay. The format is cell-based. The conditions noted are these: receptor expressed in CHO cells, intracellular Ca2+ release; read-out: hM1 EC50. As for the experimental part:
as §1, §2, §3, §4

Among the data in patent US20090221567A1, “MUSCARINIC RECEPTOR AGONISTS, COMPOSITIONS, METHODS OF TREATMENT THEREOF, AND PROCESSES FOR PREPARATION THEREOF 177” (ASTRAZENECA AB, priority 2008, published 2009) are EC50 values, retold here.

For orientation: EC50 means the concentration at which the effect is half-maximal. As for `CCOC(=O)N1CCC(C)(N2CCC(N3C(=O)CO[C@H]4CCCC[C@@H]43)CC2)C1` (single isomer, unassigned) [Example 18], the EC50 in assay [1] was above 40000 nM; in assay [2] it was 23 nM.
Taken in the same sequence, the figures for `CCOC(=O)N1CCC(C)(N2CCC(N3C(=O)CO[C@H]4CCCC[C@@H]43)CC2)C1` (single isomer, unassigned) [Example 19] were above 40000 nM and 46 nM.
Take `CCOC(=O)N1CCC(N2CCC(N3C(=O)NC[C@H]4CCCC[C@@H]43)CC2)CC1` [Example 1, Ethyl 4-[4-[(4aR,8aS)-2-oxo-3,4,4a,5,6,7,8,8a-octahydroquinazolin-1-y]-1-piperidyl]piperidine-1-carboxylate]: in assay [2], the EC50 was found to be 1.6 nM.
Regarding `CC(C)OC(=O)N1CCC(N2CCC(N3C(=O)NC[C@H]4CCCC[C@@H]43)CC2)CC1` [Example 2, Propan-2-yl 4-[4-[(4aR,8aS)-2-oxo-3,4,4a,5,6,7,8,8a-octahydroquinazolin-1-yl]-1-piperidyl]piperidine-1-carboxylate], the 50% effective concentration (EC50) in assay [1] is above 49200 nM; in assay [2] it was 5.3 nM.
Taken in the same sequence, the figures for `O=C(C1CC1)N1CCC(N2CCC(N3C(=O)NC[C@H]4CCCC[C@@H]43)CC2)CC1` [Example 3, (4aR,8aS)-1-[1-[1-(cyclopropanecarbonyl)-4-piperidyl]-4-piperidyl]-3,4,4a,5,6,7,8,8a-octahydroquinazolin-2-one] were above 31100 nM and 13 nM.
As for `Cc1ccccc1C(=O)N1CCC(N2CCC(N3C(=O)NC[C@H]4CCCC[C@@H]43)CC2)CC1` [Example 4, (4aR,8aS)-1-[1-[1-(2-methylbenzoyl)-4-piperidyl]-4-piperidyl]-3,4,4a,5,6,7,8,8a-octahydroquinazolin-2-one], the values for the 50% effective concentration (EC50) in assay [1] and in assay [2] were above 49200 nM and 25 nM, respectively.
`CC(C)OC(=O)N1CCC(N2CCC(N3C(=O)N(C)C[C@H]4CCCC[C@@H]43)CC2)CC1` [Example 6, Propan-2-yl 4-[4-[(4aR,8aS)-3-methyl-2-oxo-4a,5,6,7,8,8a-hexahydro-4H-quinazolin-1-yl]-1-piperidyl]piperidine-1-carboxylate]: the values for the concentration giving a half-maximal response (EC50) in assay [1] and in assay [2] were above 40000 nM and 94 nM, respectively.
The matching figures for `CCOC(=O)N1CCC(C)(N2CCC(N3C(=O)NC[C@H]4CCCC[C@@H]43)CC2)CC1` [Example 7, Ethyl 4-[4-[(4aR,8aS)-2-oxo-3,4,4a,5,6,7,8,8a-octahydroquinazolin-1-yl]-1-piperidyl]-4-methyl-piperidine-1-carboxylate]: 168 nM and 4.5 nM.
Taken in the same sequence, the figures for `CC(C)OC(=O)N1CCC(C)(N2CCC(N3C(=O)NC[C@H]4CCCC[C@@H]43)CC2)CC1` [Example 8, Propan-2-yl 4-[4-[(4aR,8aS)-2-oxo-3,4,4a,5,6,7,8,8a-octahydroquinazolin-1-yl]-1-piperidyl]-4-methyl-piperidine-1-carboxylate] were above 40000 nM and below 11 nM.
The matching figures for `CCOC(=O)N1CCC(N2CCC(N3C(=O)CO[C@H]4CCCC[C@@H]43)CC2)CC1` [Example 9, Ethyl 4-[4-[(1S,6S)-9-oxo-7-oxa-10-azabicyclo[4.4.0]dec-10-yl]-1-piperidyl]piperidine-1-carboxylate]: 97.7 nM and 17 nM.
`CC(C)OC(=O)N1CCC(N2CCC(N3C(=O)CO[C@H]4CCCC[C@@H]43)CC2)CC1` [Example 10, Propan-2-yl 4-[4-[(1S,6S)-9-oxo-7-oxa-10-azabicyclo[4.4.0]dec-10-yl]-1-piperidyl]piperidine-1-carboxylate]: the EC50 in assay [1] is above 40000 nM; in assay [2], 22 nM.
The matching figures for `Cc1ccccc1C(=O)N1CCC(N2CCC(N3C(=O)CO[C@H]4CCCC[C@@H]43)CC2)CC1` [Example 11, (1S,6S)-10-[1-[1-(2-methylbenzoyl)-4-piperidyl]-4-piperidyl]-7-oxa-10-azabicyclo[4.4.0]decan-9-one]: above 40000 nM and 170 nM.
Taken in the same sequence, the figures for `Cn1cccc1C(=O)N1CCC(N2CCC(N3C(=O)CO[C@H]4CCCC[C@@H]43)CC2)CC1` [Example 12, (1S,6S)-10-[1-[1-(1-methylpyrrole-2-carbonyl)-4-piperidyl]-4-piperidyl]-7-oxa-10-azabicyclo[4.4.0]decan-9-one] were above 40000 nM and 340 nM.
For `CCOC(=O)N1CC[C@H](N2CCC(N3C(=O)CO[C@H]4CCCC[C@@H]43)CC2)C1` [Example 13, Ethyl (3S)-3-[4-[(1S,6S)-9-oxo-7-oxa-10-azabicyclo[4.4.0]dec-10-yl]-1-piperidyl]pyrrolidine-1-carboxylate], the figures for the EC50 in assay [1] and in assay [2] were above 40000 nM and 200 nM, respectively.
The matching figures for `CC(C)OC(=O)N1CCC(N2CCC(N3C(=O)CO[C@@H]4CCCC[C@H]43)CC2)CC1` [Example 14, Propan-2-yl 4-[4-[(1R,6R)-9-oxo-7-oxa-10-azabicyclo[4.4.0]dec-10yl]-1-piperidyl]piperidine-1-carboxylate]: above 40000 nM and 130 nM.
For the molecule `CCOC(=O)N1CCC(N2CCC(N3C(=O)OC[C@H]4CCCC[C@@H]43)CC2)CC1` [Example 15, Ethyl 4-[4-[(1S,6S)-9-oxo-8-oxa-10-azabicyclo[4.4.0]dec-10-yl]-1-piperidyl]piperidine-1-carboxylate], the values for the EC50 in assay [1] and in assay [2] were above 40000 nM and 83 nM, respectively.
